{"source": "patent US20220072101A1", "about": "“HARNESSING INFLAMMATION TO TREAT NEURODEVELOPMENTAL DISORDERS” (President and Fellows of Harvard College, priority 2019, published 2022)", "key": {"MIA offspring": {"system": "MIA offspring", "test": "Three-chamber social approach assay in PBS and MIA offspring", "assay_type": "in vivo, mouse", "experimental": "Adult male mice were assayed for sociability using a three-chamber social approach assay. The arena was constructed of white acrylic (50 cm×35 cm×30 cm). Wire cups (Spectrum Diversified®) were placed in the back left and right corner of the arena beneath water-filled 1 L bottles (Nalgene®). On Day 0, mice were habituated to the arena for 10 min. Immediately following habituation, mice were singly housed. On Day 1 (Pre), mice were placed in the center of the arena and allowed to freely explore. Following 10 min, mice were confined to the center of the arena. An inanimate object (rubber stopper) or a male conspecific were placed beneath the wire cups. Placement of the inanimate object and social target were alternated. Mice were then allowed to freely explore the arena for 10 min. Interaction time was defined as time spent in the areas circumscribing the wire cups (<2 cm). Sociability was defined as interaction time with the social target divided by total interaction time and expressed as a percentage. For experiments involving LPS injections, mice were injected with LPS ([…], i.p., L2630, Sigma) on Day 2 (Test), four hours prior to testing. […]\nAdult male mice were implanted with cannula into S1DZ and allowed to recover for >2 weeks prior to behavioral experiments. On Day 1 (Pre) mice were assayed for sociability. On Day 2 (Test), mice were anesthetized briefly using isoflurane and either vehicle or IL-17a (50 ng/side in 1 μl at a rate of 180 nl/min, 7956-ML/CF, R&D®) was administered bilaterally into S1DZ through 250 μm-projecting injector tips (PlasticsOne®). Four hours after vehicle or IL-17a administration, mice were assayed for sociability. Cannula placements were verified using histology.\nAdult male mice were assayed for sociability using a three-chamber social approach assay. The arena was constructed of white acrylic (50 cm×35 cm×30 cm). Wire cups (Spectrum Diversified®) were placed in the back left and right corner of the arena beneath water-filled 1 L bottles (Nalgene®). On day 0, mice were habituated to the arena for 10 min. Immediately following habituation, mice were singly housed. On day 1 (Pre), mice were placed in the center of the arena and allowed to freely explore. Following 10 min, mice were confined to the center of the arena. An inanimate object (rubber stopper) or a male conspecific were placed beneath the wire cups. Placement of the inanimate object and social target were alternated. Mice were then allowed to freely explore the arena for 10 min. Interaction time was defined as time spent in the areas circumscribing the wire cups (<2 cm). Sociability was defined as interaction time with the social target divided by total interaction time and expressed as a percentage. For experiments involving LPS injections, mice were injected with either saline (Veh) or LPS ([…], i.p., L2630, Sigma) on day 2 (Test), four hours prior to testing. For the experiment assaying sociability 72 hrs following LPS injection, mice used for 4 hr LPS sociability experiments were tested for sociability again at 72 hrs.\nAdult male Vgat-Cre MIA offspring were bilaterally injected with virus encoding the inhibitory DREADD receptor fused to mCherry into the vLPO. Following >3 weeks of recovery, mice were assayed on the three-chamber social approach assay outlined above. Baseline sociability was assayed on day 1 (Pre). On day 2 and day 3, mice were injected with either Saline (Veh) or CNO (1.5 mg/kg i.p., BML-NS105, Enzo Life Sciences®), two hours prior to initiation of behavior. Injection order was counterbalanced. Following behavioral experiments, post-mortem histology was used to confirm mCherry expression within the vLPO. For experiments assaying the effect of CNO and LPS injection in Vgat-Cre PBS and MIA offspring that have not undergone surgery, baseline sociability was assessed on day 1. On day 2 and 3 mice received counterbalanced injections of CNO or vehicle. On day 4, mice were injected with LPS. […]"}, "IL-17a, IFNγ, IL-6, TNFα": {"system": "IL-17a, IFNγ, IL-6, TNFα", "test": "ELISA of cytokines in plasma and brain lysate", "assay_type": "in vivo, mouse", "experimental": "Mice were put under general anesthesia by intraperitoneal injection of Ketamine (100 mg/kg, i.p.) and xylazine (10 mg/kg, i.p.). Blood was collected by retro-orbital puncture, using clean heparinized microhematocrit capillary tubes (Fisher Scientific®). Once the tube was withdrawn, slight pressure was applied on the eyelid with gauze to prevent further bleeding. All blood samples were centrifuged at 15,000 g for 3 min at room temperature. For quantification of cytokines in brain lysate, samples were disrupted in cold lysis buffer with protease inhibitor cocktail for 60 seconds using the Micro-Homogenizer (VWR International) and centrifuged for 30 min at 15,000×g to remove insoluble precipitates. All samples were stored at −80° C. until further analysis. Plasma and brain lysate cytokines concentrations were measured using an ELISA kit (Biolgened™), following the manufacturer's instructions.\nAfter four hours of vehicle or LPS administration, mice were anesthetized by intraperitoneal injection of fatal plus (100 mg/kg). All blood samples were centrifuged at 10,000 g for 10 min at 4 C. All samples were stored at −80° C. until further analysis. Cytokines concentrations in plasma were measured using an ELISA kit (IFN-γ; 430804, TNF-α; 430904, IL-6; 431304, IL-17a; 432504, Biolegend®), following the manufacturer's instructions."}}, "note": "“Also recorded” adds a separate entry of the source.", "data": [{"substance": "lipopolysaccharide [LPS]", "values": [{"measurement": "sociability deficits", "setting": "MIA offspring; IFNγ or IL-17a knockout (KO) MIA offspring, LPS i.p., 4 hours", "result": "failed to rescue the sociability deficits in IFNγ or IL-17a knockout (KO) MIA offspring"}, {"measurement": "LPS-induced rescue of sociability by age", "setting": "MIA offspring; MIA mice, young (2-5 months) and aged (9-12 month), 4 hr after LPS", "result": "observed in both young (2-5 months) and aged (9-12 month) mice; also recorded: effective in aged mice"}, {"measurement": "sociability (deficit in sociability)", "setting": "MIA offspring; MIA offspring (WT), LPS 50 μg/kg i.p., 4 hours after injection", "result": "temporarily rescued; also recorded: robustly rescued their characteristic deficits in sociability; also recorded: restored sociability; also recorded: rescues sociability deficits in MIA offspring"}, {"measurement": "sociability", "setting": "MIA offspring; MIA offspring deficient for IL-17Ra in the S1DZ (IL-17Ra fl/fl; EGFP:nCre), LPS i.p., 4 hours", "result": "failed to restore sociability"}, {"measurement": "sociability rescue 72 hours following LPS", "setting": "MIA offspring; MIA offspring, 72 hours after LPS treatment", "result": "behavioral rescue was absent 72 hours following LPS treatment; also recorded: absent 72 hours following the treatment; also recorded: transient"}, {"measurement": "baseline sociability", "setting": "MIA offspring; PBS (control) offspring, LPS i.p., 4 hours after injection", "result": "Neither vehicle nor LPS injection affected baseline sociability in PBS offspring; also recorded: did not affect baseline sociability in control offspring"}, {"measurement": "sociability in MIA Vgat-Cre mice", "setting": "MIA offspring; Vgat-Cre MIA offspring without surgery, CNO 1.5 mg/kg i.p. or LPS", "result": "showed an increase in sociability upon LPS treatment"}, {"measurement": "IL-17a in the brain", "setting": "IL-17a, IFNγ, IL-6, TNFα; IFNγ KO MIA offspring, LPS treatment", "result": "no longer detectable"}, {"measurement": "IL-17a and IFNγ levels in the brain", "setting": "IL-17a, IFNγ, IL-6, TNFα; MIA offspring injected with LPS, brain lysate", "result": "elevated levels of IL-17a, but not IFNγ, in the brain"}, {"measurement": "plasma levels of IFNγ, IL-6, TNFα and IL-17a", "setting": "IL-17a, IFNγ, IL-6, TNFα; MIA offspring, LPS i.p.", "result": "increased plasma levels of inflammatory cytokines; also recorded: robust increase in plasma levels of IFNγ, IL-6, TNFα and IL-17a"}, {"measurement": "plasma/blood levels of inflammatory cytokines (IL-17a, IFNγ)", "setting": "IL-17a, IFNγ, IL-6, TNFα; PBS (control) offspring, LPS 50 μg/kg i.p.", "result": "insufficient to produce high levels of inflammatory cytokines; also recorded: failed to increase IL-17a and IFNγ levels in the blood"}, {"measurement": "plasma levels of IFN-γ, IL-6, and TNF-α", "setting": "IL-17a, IFNγ, IL-6, TNFα; PBS, MIA, WT and monogenic mutant mice (FIG. 23A), four hours after LPS", "result": "robust increase in plasma levels of IFN-γ, IL-6, and TNF-α"}, {"measurement": "plasma/blood IL-17a, MIA offspring vs monogenic mutant mice and controls", "setting": "IL-17a, IFNγ, IL-6, TNFα; four hours after LPS", "result": "did not induce comparable amounts of interleukin-17a (IL-17a) as in MIA offspring; also recorded: prominently upregulated in MIA offspring, but not in monogenic mutant mice or in control animals; also recorded: increase in IL-17a levels in the blood selectively in MIA offspring, but not in other monogenic mutant mice"}]}]}
